Data from ChEMBL document CHEMBL4507281, “Data for DCP probe BI-4394” (2021).

Assays:
[1] = biological target: Interleukin-1 receptor-associated kinase 1 (Homo sapiens) (UniProt P51617); settings: Compound concentration 100.0 nM
[2] = biological target: Tyrosine-protein kinase Lyn (Homo sapiens) (UniProt P07948); settings: Compound concentration 100.0 nM
[3] = biological target: Serine/threonine-protein kinase 35 (Homo sapiens) (UniProt Q8TDR2); settings: Compound concentration 100.0 nM
[4] = biological target: Mitogen-activated protein kinase kinase kinase 19 (Homo sapiens) (UniProt Q56UN5); settings: Compound concentration 100.0 nM
[5] = biological target: Tyrosine-protein kinase receptor TYRO3 (Homo sapiens) (UniProt Q06418); settings: Compound concentration 100.0 nM
[6] = biological target: Ephrin type-A receptor 8 (Homo sapiens) (UniProt P29322); settings: Compound concentration 100.0 nM
[7] = biological target: Receptor tyrosine-protein kinase erbB-4 (Homo sapiens) (UniProt Q15303); settings: Compound concentration 100.0 nM
Chain of Receptor tyrosine-protein kinase erbB-4 (Homo sapiens) (Q15303 whole entry): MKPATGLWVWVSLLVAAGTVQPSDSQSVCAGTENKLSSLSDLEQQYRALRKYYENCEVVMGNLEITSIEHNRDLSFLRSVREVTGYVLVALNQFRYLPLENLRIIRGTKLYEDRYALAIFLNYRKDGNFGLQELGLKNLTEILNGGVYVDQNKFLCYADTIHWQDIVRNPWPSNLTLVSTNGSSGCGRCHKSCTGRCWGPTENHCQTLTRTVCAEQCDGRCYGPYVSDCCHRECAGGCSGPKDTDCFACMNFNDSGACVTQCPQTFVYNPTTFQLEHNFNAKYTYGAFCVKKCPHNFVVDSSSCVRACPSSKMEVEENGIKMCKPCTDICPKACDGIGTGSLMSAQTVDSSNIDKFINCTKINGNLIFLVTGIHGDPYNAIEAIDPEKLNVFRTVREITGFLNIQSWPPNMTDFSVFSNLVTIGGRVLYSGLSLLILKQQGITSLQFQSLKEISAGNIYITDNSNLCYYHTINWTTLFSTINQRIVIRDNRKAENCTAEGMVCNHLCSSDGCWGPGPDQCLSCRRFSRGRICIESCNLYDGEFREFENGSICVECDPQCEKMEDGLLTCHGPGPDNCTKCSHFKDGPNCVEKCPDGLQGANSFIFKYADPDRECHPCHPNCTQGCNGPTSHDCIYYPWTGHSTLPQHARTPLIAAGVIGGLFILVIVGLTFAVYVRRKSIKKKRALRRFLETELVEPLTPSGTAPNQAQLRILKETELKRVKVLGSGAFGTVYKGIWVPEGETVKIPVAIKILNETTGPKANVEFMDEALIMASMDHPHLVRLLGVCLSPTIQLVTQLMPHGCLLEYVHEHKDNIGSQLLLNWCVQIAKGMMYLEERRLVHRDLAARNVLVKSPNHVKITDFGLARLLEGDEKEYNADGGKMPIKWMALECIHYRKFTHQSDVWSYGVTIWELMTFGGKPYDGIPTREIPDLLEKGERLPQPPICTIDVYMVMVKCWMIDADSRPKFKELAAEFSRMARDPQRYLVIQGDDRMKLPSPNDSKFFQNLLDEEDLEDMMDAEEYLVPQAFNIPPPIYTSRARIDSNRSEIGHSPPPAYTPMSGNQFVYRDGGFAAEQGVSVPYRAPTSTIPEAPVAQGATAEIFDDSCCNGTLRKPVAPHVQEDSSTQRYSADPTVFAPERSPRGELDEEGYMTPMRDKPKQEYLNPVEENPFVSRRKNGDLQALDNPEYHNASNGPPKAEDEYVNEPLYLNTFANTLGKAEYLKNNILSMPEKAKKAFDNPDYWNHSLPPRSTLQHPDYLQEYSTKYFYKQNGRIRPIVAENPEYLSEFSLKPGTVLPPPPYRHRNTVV

[8] = biological target: Tyrosine-protein kinase ABL2 (Homo sapiens) (UniProt P42684); settings: Compound concentration 100.0 nM
Chain of Tyrosine-protein kinase ABL2 (Homo sapiens) (P42684 whole entry): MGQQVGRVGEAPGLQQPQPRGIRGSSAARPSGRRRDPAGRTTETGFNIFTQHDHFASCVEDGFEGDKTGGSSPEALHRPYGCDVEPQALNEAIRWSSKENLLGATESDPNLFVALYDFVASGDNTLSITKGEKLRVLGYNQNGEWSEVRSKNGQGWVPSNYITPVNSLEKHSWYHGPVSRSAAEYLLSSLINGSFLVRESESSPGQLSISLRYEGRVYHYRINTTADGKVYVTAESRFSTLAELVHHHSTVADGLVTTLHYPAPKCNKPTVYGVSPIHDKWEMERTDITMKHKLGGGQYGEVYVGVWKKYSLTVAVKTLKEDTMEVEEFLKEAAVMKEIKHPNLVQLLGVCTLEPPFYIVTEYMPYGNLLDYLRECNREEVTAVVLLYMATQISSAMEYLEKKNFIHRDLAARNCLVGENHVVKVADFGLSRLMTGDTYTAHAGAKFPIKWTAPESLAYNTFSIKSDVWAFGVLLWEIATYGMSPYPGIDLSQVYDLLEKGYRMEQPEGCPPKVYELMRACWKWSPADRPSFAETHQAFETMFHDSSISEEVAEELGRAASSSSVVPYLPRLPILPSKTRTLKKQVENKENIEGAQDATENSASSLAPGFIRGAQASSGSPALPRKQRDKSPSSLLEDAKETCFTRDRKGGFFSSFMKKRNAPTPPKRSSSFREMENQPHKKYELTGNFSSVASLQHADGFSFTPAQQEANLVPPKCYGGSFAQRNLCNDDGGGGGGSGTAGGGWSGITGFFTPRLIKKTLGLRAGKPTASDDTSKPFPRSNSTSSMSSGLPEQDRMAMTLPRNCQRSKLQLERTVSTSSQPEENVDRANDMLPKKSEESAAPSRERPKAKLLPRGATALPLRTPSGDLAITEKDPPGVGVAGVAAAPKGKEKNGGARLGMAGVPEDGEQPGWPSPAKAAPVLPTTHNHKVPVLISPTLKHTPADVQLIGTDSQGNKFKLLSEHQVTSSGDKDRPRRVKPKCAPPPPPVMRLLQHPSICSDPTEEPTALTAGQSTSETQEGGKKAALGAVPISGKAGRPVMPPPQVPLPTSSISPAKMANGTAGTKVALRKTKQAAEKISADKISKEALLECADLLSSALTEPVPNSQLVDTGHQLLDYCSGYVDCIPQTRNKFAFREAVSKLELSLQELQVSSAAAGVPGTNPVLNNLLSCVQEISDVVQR

[9] = biological target: Maternal embryonic leucine zipper kinase (Homo sapiens) (UniProt Q14680); settings: Compound concentration 100.0 nM
[10] = biological target: Epithelial discoidin domain-containing receptor 1 (Homo sapiens) (UniProt Q08345); settings: Compound concentration 100.0 nM
[11] = biological target: Mitogen-activated protein kinase kinase kinase kinase 5 (Homo sapiens) (UniProt Q9Y4K4); settings: Compound concentration 100.0 nM
[12] = biological target: Mitogen-activated protein kinase 3 (Homo sapiens) (UniProt P27361); settings: Compound concentration 100.0 nM
Chain of Mitogen-activated protein kinase 3 (Homo sapiens) (P27361 whole entry): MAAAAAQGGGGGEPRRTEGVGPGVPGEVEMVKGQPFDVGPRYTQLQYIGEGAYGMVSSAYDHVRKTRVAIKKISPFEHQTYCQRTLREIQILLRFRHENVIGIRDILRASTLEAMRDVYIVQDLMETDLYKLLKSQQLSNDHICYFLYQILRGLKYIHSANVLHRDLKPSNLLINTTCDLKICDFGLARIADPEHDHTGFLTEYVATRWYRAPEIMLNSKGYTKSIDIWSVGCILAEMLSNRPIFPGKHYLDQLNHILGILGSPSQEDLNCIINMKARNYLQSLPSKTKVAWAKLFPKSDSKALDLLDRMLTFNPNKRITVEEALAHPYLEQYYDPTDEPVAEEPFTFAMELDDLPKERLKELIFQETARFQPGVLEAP

[13] = biological target: Beta-3 adrenergic receptor (Homo sapiens) (UniProt P13945); settings: Compound concentration 10.0 uM
[14] = biological target: 5-hydroxytryptamine receptor 6 (Homo sapiens) (UniProt P50406); settings: Compound concentration 10.0 uM
[15] = biological target: Serine/threonine-protein kinase DCLK1 (Homo sapiens) (UniProt O15075); settings: Compound concentration 100.0 nM
[16] = biological target: RAC-beta serine/threonine-protein kinase (Homo sapiens) (UniProt P31751); settings: Compound concentration 100.0 nM
Chain of RAC-beta serine/threonine-protein kinase (Homo sapiens) (P31751 whole entry): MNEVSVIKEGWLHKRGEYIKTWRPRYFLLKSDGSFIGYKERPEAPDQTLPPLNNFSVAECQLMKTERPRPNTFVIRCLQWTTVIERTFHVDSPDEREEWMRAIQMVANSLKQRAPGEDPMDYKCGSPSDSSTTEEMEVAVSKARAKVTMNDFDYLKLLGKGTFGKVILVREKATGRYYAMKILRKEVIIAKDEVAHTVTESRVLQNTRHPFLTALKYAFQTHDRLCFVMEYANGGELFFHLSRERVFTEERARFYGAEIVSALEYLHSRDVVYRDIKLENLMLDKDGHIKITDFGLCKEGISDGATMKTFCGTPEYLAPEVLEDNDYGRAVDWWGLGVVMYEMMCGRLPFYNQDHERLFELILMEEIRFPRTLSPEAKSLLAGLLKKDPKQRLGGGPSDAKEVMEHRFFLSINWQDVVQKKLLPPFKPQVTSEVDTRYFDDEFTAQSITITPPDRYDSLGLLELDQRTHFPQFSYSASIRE

[17] = biological target: 5-hydroxytryptamine receptor 2C (Homo sapiens) (UniProt P28335); settings: Compound concentration 10.0 uM
[18] = biological target: Homeodomain-interacting protein kinase 3 (Homo sapiens) (UniProt Q9H422); settings: Compound concentration 100.0 nM
[19] = biological target: Ribosomal protein S6 kinase alpha-4 (Homo sapiens) (UniProt O75676); settings: Compound concentration 100.0 nM
[20] = biological target: Cyclin-dependent kinase 5 (Homo sapiens) (UniProt Q00535); settings: Compound concentration 100.0 nM
Chain of Cyclin-dependent kinase 5 (Homo sapiens) (Q00535 whole entry, looked up): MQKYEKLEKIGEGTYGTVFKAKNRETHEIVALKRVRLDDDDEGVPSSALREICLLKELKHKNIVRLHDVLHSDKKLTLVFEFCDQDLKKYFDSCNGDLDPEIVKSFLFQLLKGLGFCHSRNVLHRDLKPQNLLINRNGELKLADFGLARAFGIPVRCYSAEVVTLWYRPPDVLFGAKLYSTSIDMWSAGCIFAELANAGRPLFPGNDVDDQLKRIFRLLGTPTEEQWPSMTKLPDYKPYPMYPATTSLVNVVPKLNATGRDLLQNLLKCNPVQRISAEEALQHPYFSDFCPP

[21] = biological target: Proto-oncogene tyrosine-protein kinase Src (Homo sapiens) (UniProt P12931); settings: Compound concentration 100.0 nM
[22] = test system: Mast/stem cell growth factor receptor Kit (Homo sapiens), P10721 [A829P]; settings: Compound concentration 100.0 nM
[23] = biological target: MAP kinase-interacting serine/threonine-protein kinase 1 (Homo sapiens) (UniProt Q9BUB5); settings: Compound concentration 100.0 nM
[24] = biological target: Tyrosine-protein kinase BTK (Homo sapiens) (UniProt Q06187); settings: Compound concentration 100.0 nM
[25] = biological target: Ribosomal protein S6 kinase alpha-6 (Homo sapiens) (UniProt Q9UK32); settings: Compound concentration 100.0 nM
[26] = biological target: Homeodomain-interacting protein kinase 2 (Homo sapiens) (UniProt Q9H2X6); settings: Compound concentration 100.0 nM
[27] = biological target: ALK tyrosine kinase receptor (Homo sapiens) (UniProt Q9UM73); settings: Compound concentration 100.0 nM
[28] = test system: Tyrosine-protein kinase ABL1 (Homo sapiens), P00519 [F317L]; settings: Compound concentration 100.0 nM
[29] = biological target: Serine/threonine-protein kinase RIO1 (Homo sapiens) (UniProt Q9BRS2); settings: Compound concentration 100.0 nM
Chain of Serine/threonine-protein kinase RIO1 (Homo sapiens) (Q9BRS2 whole entry, canonical isoform): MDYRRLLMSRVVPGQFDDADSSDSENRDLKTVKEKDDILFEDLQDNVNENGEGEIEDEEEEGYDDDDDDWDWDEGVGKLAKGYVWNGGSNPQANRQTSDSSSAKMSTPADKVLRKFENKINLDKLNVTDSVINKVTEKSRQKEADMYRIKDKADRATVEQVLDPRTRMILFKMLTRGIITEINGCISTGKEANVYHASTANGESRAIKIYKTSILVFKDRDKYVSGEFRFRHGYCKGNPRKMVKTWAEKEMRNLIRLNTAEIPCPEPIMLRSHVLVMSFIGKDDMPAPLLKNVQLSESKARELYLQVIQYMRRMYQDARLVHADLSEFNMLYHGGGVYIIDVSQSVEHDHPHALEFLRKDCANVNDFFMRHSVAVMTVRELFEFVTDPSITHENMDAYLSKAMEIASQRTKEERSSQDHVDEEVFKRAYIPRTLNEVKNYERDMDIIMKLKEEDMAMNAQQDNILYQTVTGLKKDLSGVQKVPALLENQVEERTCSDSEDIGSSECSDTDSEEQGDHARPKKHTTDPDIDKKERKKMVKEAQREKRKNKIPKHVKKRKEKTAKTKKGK

[30] = test system: Phosphatidylinositol 4,5-bisphosphate 3-kinase catalytic subunit alpha isoform (Homo sapiens), P42336 [H1047Y]; settings: Compound concentration 100.0 nM
[31] = biological target: Epidermal growth factor receptor (Homo sapiens) (UniProt P00533); settings: Compound concentration 100.0 nM
[32] = biological target: NUAK family SNF1-like kinase 2 (Homo sapiens) (UniProt Q9H093); settings: Compound concentration 100.0 nM
[33] = biological target: Serine/threonine-protein kinase PRP4 homolog (Homo sapiens) (UniProt Q13523); settings: Compound concentration 100.0 nM
[34] = biological target: T1, Inhibitor of nuclear factor kappa-B kinase subunit beta (Homo sapiens) (UniProt O14920); settings: Compound concentration 100.0 nM
T1 sequence (whole entry): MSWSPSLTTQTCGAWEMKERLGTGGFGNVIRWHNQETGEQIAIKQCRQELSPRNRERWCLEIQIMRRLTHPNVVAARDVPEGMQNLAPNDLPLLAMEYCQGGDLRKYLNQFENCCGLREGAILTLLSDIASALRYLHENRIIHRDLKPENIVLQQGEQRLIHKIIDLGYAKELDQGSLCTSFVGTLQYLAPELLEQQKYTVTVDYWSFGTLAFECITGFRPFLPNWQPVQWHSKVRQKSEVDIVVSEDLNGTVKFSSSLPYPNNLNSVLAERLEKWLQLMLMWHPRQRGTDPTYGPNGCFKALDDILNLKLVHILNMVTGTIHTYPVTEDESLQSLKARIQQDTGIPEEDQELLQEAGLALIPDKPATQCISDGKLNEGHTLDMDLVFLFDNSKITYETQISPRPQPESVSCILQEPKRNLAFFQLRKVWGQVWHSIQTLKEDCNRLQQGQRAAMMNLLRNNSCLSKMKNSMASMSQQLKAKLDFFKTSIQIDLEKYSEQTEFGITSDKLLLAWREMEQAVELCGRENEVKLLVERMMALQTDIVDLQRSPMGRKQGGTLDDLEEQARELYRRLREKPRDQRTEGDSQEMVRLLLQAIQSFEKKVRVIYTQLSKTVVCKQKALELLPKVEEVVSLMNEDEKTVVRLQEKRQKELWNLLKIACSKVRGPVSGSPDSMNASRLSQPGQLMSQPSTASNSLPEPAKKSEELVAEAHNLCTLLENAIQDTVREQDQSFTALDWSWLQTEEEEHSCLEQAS

[35] = biological target: Cyclin-dependent kinase 4 (Homo sapiens) (UniProt P11802); settings: Compound concentration 100.0 nM
Chain of Cyclin-dependent kinase 4 (Homo sapiens) (P11802 whole entry): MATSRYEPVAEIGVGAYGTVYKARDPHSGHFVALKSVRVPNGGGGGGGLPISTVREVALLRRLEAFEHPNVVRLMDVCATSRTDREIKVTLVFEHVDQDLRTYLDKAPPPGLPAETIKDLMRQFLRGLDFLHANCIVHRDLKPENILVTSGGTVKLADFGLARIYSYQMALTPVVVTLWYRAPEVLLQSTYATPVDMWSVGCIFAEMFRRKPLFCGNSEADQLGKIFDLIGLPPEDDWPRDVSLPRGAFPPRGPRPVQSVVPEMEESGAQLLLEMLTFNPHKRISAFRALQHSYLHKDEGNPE

Chain of Serine/threonine-protein kinase 35 (Homo sapiens) (Q8TDR2 whole entry): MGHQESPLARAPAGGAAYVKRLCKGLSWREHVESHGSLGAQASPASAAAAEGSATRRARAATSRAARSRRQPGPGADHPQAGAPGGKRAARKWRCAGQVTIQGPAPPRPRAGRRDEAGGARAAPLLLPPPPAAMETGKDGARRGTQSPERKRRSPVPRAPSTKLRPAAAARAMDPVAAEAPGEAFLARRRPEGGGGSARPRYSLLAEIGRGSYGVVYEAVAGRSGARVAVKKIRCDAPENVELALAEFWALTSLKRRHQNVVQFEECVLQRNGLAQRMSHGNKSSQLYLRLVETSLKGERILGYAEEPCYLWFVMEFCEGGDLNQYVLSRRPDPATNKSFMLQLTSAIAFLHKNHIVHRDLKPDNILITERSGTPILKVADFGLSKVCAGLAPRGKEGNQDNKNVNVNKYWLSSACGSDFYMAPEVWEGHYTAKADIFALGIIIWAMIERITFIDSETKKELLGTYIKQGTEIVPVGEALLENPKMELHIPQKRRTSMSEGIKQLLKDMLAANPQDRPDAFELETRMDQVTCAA

Cn1nc(C(=O)NCc2ccc(C(=O)O)cc2)cc1-c1ccc2[nH]ccc2c1 [BI 4395]
inactive: residual activity [1] 93% | residual activity [2] 100% | residual activity [3] 94% | residual activity [4] 85% | residual activity [5] 100% | residual activity [6] 92% | residual activity [7] 98% | residual activity [8] 93% | residual activity [9] 86% | residual activity [10] 89% | residual activity [11] 96% | residual activity [12] 94% | inhibition [13] 2.13% | inhibition [14] 8.85% | residual activity [15] 88% | residual activity [16] 96% | inhibition [17] -9.67% | residual activity [18] 88% | residual activity [19] 81% | residual activity [20] 90% | residual activity [21] 100% | residual activity [22] 72% | residual activity [23] 100% | residual activity [24] 77% | residual activity [25] 86% | residual activity [26] 97% | residual activity [27] 80% | residual activity [28] 87% | residual activity [29] 76% | residual activity [30] 100% | residual activity [31] 100% | residual activity [32] 87% | residual activity [33] 100% | residual activity [34] 93% | residual activity [35] 88%

CCOC(=O)c1cc2cc(-c3cc(C(=O)NCc4ccc(C(=O)O)cc4)nn3C)ccc2[nH]1 [BI 4394]
inactive: residual activity [1] 85% | residual activity [2] 100% | residual activity [3] 94% | residual activity [4] 75% | residual activity [5] 100% | residual activity [6] 100% | residual activity [7] 96% | residual activity [8] 100% | residual activity [9] 100% | residual activity [10] 100% | residual activity [11] 93% | residual activity [12] 88% | inhibition [13] -6.63% | inhibition [14] 4.01% | residual activity [15] 86% | residual activity [16] 100% | inhibition [17] 3.56% | residual activity [18] 81% | residual activity [19] 86% | residual activity [20] 94% | residual activity [21] 93% | residual activity [22] 95% | residual activity [23] 75% | residual activity [24] 77% | residual activity [25] 95% | residual activity [26] 82% | residual activity [27] 98% | residual activity [28] 61% | residual activity [29] 96% | residual activity [30] 77% | residual activity [31] 92% | residual activity [32] 85% | residual activity [33] 89% | residual activity [34] 100% | residual activity [35] 74%
